Test systems include HCT-15 colon; SK-MEL-5 melanoma; SR leukemia; NCI-H522 lung; HCC-2998 colon; OVCAR-3 ovarian; A549 NSCLC; HCT-116 colon; COLO 205 colon; MCF7 breast; PC-3 prostate; UO-31 renal; NCI-H460 lung; MDA-N; M14 melanoma.
Holding throughout (experiment): NCI-60 cell line screen, 48 h

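48-hour exposure; five concentrations; linearly interpolated endpoints. Definition used: TGI = concentration required for complete inhibition of growth.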

For `CCCC(=O)Nc1cc(/C=C/C(=O)N2CC(CCl)c3c2cc(O)c2[nH]cc(C)c32)n(C)c1` (stereo not given), the TGI in the assay with HCT-15 colon is over 196 nM; with SK-MEL-5 melanoma, under 0.025 nM; in the assay on SR leukemia it was over 140 nM; in the assay on NCI-H522 lung, under 0.025 nM.

With `COc1cc(C(O)(CC#N)c2cc3c(cc2Br)OCO3)cc(OC)c1OC` (stereo not given), the TGI with HCC-2998 colon was 66.1 µM; with OVCAR-3 ovarian, over 100 µM; in the assay with A549 NSCLC, over 100 µM; in the assay on HCT-116 colon it was over 100 µM; in the assay on COLO 205 colon, over 100 µM; with MCF7 breast, over 100 µM. Further, the TGI was over 100 µM in the assay on PC-3 prostate; over 100 µM in the assay on UO-31 renal; 50.8 µM in the assay on NCI-H460 lung; over 100 µM with MDA-N; 50.5 µM in the assay with M14 melanoma.

The values above are taken from PubChem BioAssay (NCI).
